Values after ≈ are worked out from the molar mass of the structure shown. Where two headings read alike, the source gives them in different places.
Key:
[1] = system: Haemophilus influenzae C.L.; experiment: MIC, standard agar-dilution assay; format: cell-based
Experimental: (§1) The MIC's in Table II were determined by standard agar-dilution assays. The MIC's in Table III were obtained using conventional broth-dilution microtiter tests.

[2] = system: Pseudomonas aeruginosa X239; experiment: MIC, standard agar-dilution assay; format: cell-based
Experimental: as §1

[3] = system: Streptococcus faecalis 2041; experiment: MIC, standard agar-dilution assay; format: cell-based; conditions: Enterococcus faecalis
Experimental: as §1

[4] = system: Streptococcus pyogenes C203; experiment: MIC, standard agar-dilution assay; format: cell-based
Experimental: as §1

[5] = system: Staphylococcus aureus V41; experiment: MIC, standard agar-dilution assay; format: cell-based
Experimental: as §1

[6] = system: Staphylococcus aureus X400; experiment: MIC, standard agar-dilution assay; format: cell-based
Experimental: as §1

[7] = system: Staphylococcus aureus S13E; experiment: MIC, standard agar-dilution assay; format: cell-based
Experimental: as §1

[8] = system: Streptococcus pneumoniae Park I; experiment: MIC, standard agar-dilution assay; format: cell-based
Experimental: as §1

[9] = system: Staphylococcus epidermidis EPI1; experiment: MIC, standard agar-dilution assay; format: cell-based
Experimental: as §1

[10] = system: Streptococcus faecalis X66; experiment: MIC, standard agar-dilution assay; format: cell-based; conditions: Enterococcus faecalis
Experimental: as §1

[11] = system: Staphylococcus epidermidis 222; experiment: MIC, standard agar-dilution assay; format: cell-based
Experimental: as §1

[12] = system: Staphylococcus aureus X1.1; experiment: MIC, standard agar-dilution assay; format: cell-based
Experimental: as §1

[13] = system: Escherichia coli EC14; experiment: MIC, standard agar-dilution assay; format: cell-based
Experimental: as §1

[14] = system: Klebsiella pneumoniae X68; experiment: MIC, standard agar-dilution assay; format: cell-based
Experimental: as §1

[15] = system: Haemophilus influenzae 76; experiment: MIC, standard agar-dilution assay; format: cell-based
Experimental: as §1

[16] = system: Streptococcus pyogenes C203; experiment: ED50 in mice experimentally infected with S. pyogenes C203; format: in vivo
Experimental: The formula 1 compounds have shown in vivo antimicrobial activity against experimentally-induced infections in laboratory animals. When two doses of test compound were administered to mice experimentally infected with S. pyogenes C203, the activity observed was measured as an ED₅₀ value [effective dose in mg/kg to protect 50% of the test animals: see Warren Wick, et 5 al., J. Bacteriol. 81, 233-235 (1961)].

[17] = Haemophilus influenzae C.L., Ampicillin-sensitive strain, agar dilution, read-out: MIC
[18] = Pseudomonas aeruginosa X239, agar dilution, read-out: MIC
[19] = Streptococcus faecalis 2041, agar dilution, read-out: MIC
[20] = Streptococcus pyogenes C203, agar dilution, read-out: MIC
[21] = Staphylococcus aureus V41, Penicillin-resistant strain, agar dilution, read-out: MIC
[22] = Staphylococcus aureus X400, Methicillin-resistant strain, agar dilution, read-out: MIC
[23] = Streptococcus pneumoniae Park I, agar dilution, read-out: MIC
[24] = Staphylococcus epidermidis EPI1, agar dilution, read-out: MIC
[25] = Streptococcus faecalis X66, agar dilution, read-out: MIC
[26] = Staphylococcus epidermidis 222, agar dilution, read-out: MIC
[27] = Staphylococcus aureus X1.1, agar dilution, read-out: MIC
[28] = Escherichia coli EC14, agar dilution, read-out: MIC
[29] = Haemophilus influenzae 76, Ampicillin-resistant strain, agar dilution, read-out: MIC
[30] = C203, mice, oral, two doses given 1 and 4 hours post-infection, dose protecting 50% of the test animals, read-out: ED50 Oral
[31] = C203, sc, mice, subcutaneous, two doses given 1 and 4 hours post-infection, dose protecting 50% of the test animals, read-out: ED50 Subcutaneous
[32] = Klebsiella pneumoniae X68, agar dilution, read-out: MIC

Structure (SMILES)	MIC [1, 17]	MIC [2, 18]	MIC [3, 19]	MIC [4, 20]	MIC [5, 21]	MIC [6, 22]	MIC [7]	MIC [8, 23]	MIC [9, 24]	MIC [10, 25]	MIC [11, 26]	MIC [12, 27]	MIC [13, 28]	MIC ([14]; Klebsiella pneumoniae, X68)	MIC [15, 29]	ED50 [16, 30]	ED50 [16, 31]	also measured
CCC1OC(=O)CC(O)C(C)C(OC2OC(C)C(OC(C)=O)C(N(C)C)C2OC(C)=O)C(CCOc2ccccc2)CC(C)C(=O)C=CC(C)=CC1COC1OC(C)C(OC(C)=O)C(OC)C1OC (centres unmarked) [Compound 1, 2ʹ,4ʹ,4ʹʹ-Tri-O-acetyl-20-DH-20-O-phenyl-desmycosin]	> 128 mg/L	> 128 mg/L	128 mg/L (≈ 131 µM)	1 mg/L (≈ 1.02 µM)	2 mg/L (≈ 2.05 µM)	4 mg/L (≈ 4.1 µM)	4 mg/L (≈ 4.1 µM)	8 mg/L (≈ 8.2 µM)	4 mg/L (≈ 4.1 µM)	64 mg/L (≈ 65.6 µM)	1 mg/L (≈ 1.02 µM)	4 mg/L (≈ 4.1 µM)	> 128 mg/L	> 128 mg/L	> 128 mg/L			
CCC1OC(=O)CC(O)C(C)C(OC2OC(C)C(O)C(N(C)C)C2O)C(CCOc2ccccc2)CC(C)C(=O)C=CC(C)=CC1COC1OC(C)C(OC(=O)CNCc2ccccc2)C(OC)C1OC (centres unmarked) [Compound 11, 4ʹʹ-O-(N-Benzylaminoacetyl)-20-DH-20-O-phenyl-desmycosin]	128 mg/L (≈ 128 µM)	> 128 mg/L	8 mg/L (≈ 8.02 µM)	2 mg/L (≈ 2.01 µM)	2 mg/L (≈ 2.01 µM)	2 mg/L (≈ 2.01 µM)	2 mg/L (≈ 2.01 µM)	2 mg/L (≈ 2.01 µM)	2 mg/L (≈ 2.01 µM)	8 mg/L (≈ 8.02 µM)	2 mg/L (≈ 2.01 µM)	1 mg/L (≈ 1 µM)	> 128 mg/L	> 128 mg/L	64 mg/L (≈ 64.2 µM)	14.4 mg/kg	5.7 mg/kg	
CCC1OC(=O)CC(O)C(C)C(OC2OC(C)C(O)C(N(C)C)C2O)C(CCOc2ccccc2)CC(C)C(=O)C=CC(C)=CC1COC1OC(C)C(OC(=O)Cc2ccccc2)C(OC)C1OC (centres unmarked) [Compound 4, 20-DH-20-O-Phenyl-4ʹʹ-O-(phenylacetyl)-desmycosin]							2 mg/L (≈ 2.07 µM)							> 128 mg/L				ED50 ([16]; C203, po, read-out: ED50 Oral): 14.2 mg/kg; ED50 ([16]; C203, sc, read-out: ED50 Subcutaneous): > 10 mg/kg; MIC ([1]; Haemophilus influenzae): 128 mg/L (≈ 132 µM); MIC ([2]; Pseudomonas aeruginosa, X239): > 128 mg/L; MIC [3]; 2041: 64 mg/L (≈ 66.1 µM); MIC ([4]; Streptococcus pyogenes, C203): 2 mg/L (≈ 2.07 µM); MIC ([5]; Staphylococcus aureus, V41): 2 mg/L (≈ 2.07 µM); MIC ([6]; Staphylococcus aureus, X400): 2 mg/L (≈ 2.07 µM); MIC ([8]; Streptococcus pneumoniae): 4 mg/L (≈ 4.13 µM); MIC ([9]; Staphylococcus epidermidis, EPI1): 2 mg/L (≈ 2.07 µM); MIC ([10]; X66): 16 mg/L (≈ 16.5 µM); MIC ([11]; Staphylococcus epidermidis, 222): 1 mg/L (≈ 1.03 µM); MIC ([12]; Staphylococcus aureus, X1.1): 2 mg/L (≈ 2.07 µM); MIC ([13]; Escherichia coli, EC14): > 128 mg/L; MIC ([15]; Haemophilus influenzae, 76): 128 mg/L (≈ 132 µM)
CCC1OC(=O)CC(O)C(C)C(OC2OC(C)C(O)C(N(C)C)C2O)C(CCOc2ccccc2)CC(C)C(=O)C=CC(C)=CC1COC1OC(C)C(OC(=O)C(NC(=O)OC(C)(C)C)c2ccccc2)C(OC)C1OC [Compound 6, 4ʹʹ-O-(N-BOC)-D-phenylglycyl-20-DH-20-O-phenyl-desmycosin]	> 128 mg/L	> 128 mg/L	> 128 mg/L	8 mg/L (≈ 7.38 µM)	8 mg/L (≈ 7.38 µM)	8 mg/L (≈ 7.38 µM)	16 mg/L (≈ 14.8 µM)	16 mg/L (≈ 14.8 µM)	16 mg/L (≈ 14.8 µM)	> 128 mg/L	8 mg/L (≈ 7.38 µM)	8 mg/L (≈ 7.38 µM)	> 128 mg/L	> 128 mg/L	> 128 mg/L			
CCC1OC(=O)CC(O)C(C)C(OC2OC(C)C(O)C(N(C)C)C2O)C(CCOc2ccccc2)CC(C)C(=O)C=CC(C)=CC1COC1OC(C)C(OC(=O)C(N)c2ccccc2)C(OC)C1OC [Compound 7, 20-DH-20-O-Phenyl-4ʹʹ-O-(D-phenylglycyl)-desmycosin]	128 mg/L (≈ 130 µM)	> 128 mg/L	32 mg/L (≈ 32.5 µM)	2 mg/L (≈ 2.03 µM)	2 mg/L (≈ 2.03 µM)	1 mg/L (≈ 1.02 µM)	1 mg/L (≈ 1.02 µM)	2 mg/L (≈ 2.03 µM)	2 mg/L (≈ 2.03 µM)	16 mg/L (≈ 16.3 µM)	1 mg/L (≈ 1.02 µM)	1 mg/L (≈ 1.02 µM)	> 128 mg/L	> 128 mg/L	64 mg/L (≈ 65.1 µM)	21 mg/kg	> 10 mg/kg	
CCC1OC(=O)CC(O)C(C)C(OC2OC(C)C(O)C(N(C)C)C2O)C(CCN2CC(C)CC(C)C2)CC(C)C(=O)C=CC(C)=CC1COC1OC(C)C(OC(C)=O)C(OC)C1OC (centres unmarked) [Compound 19, 4ʹʹ-O-Acetyl-20-DH-20-deoxy-20-(3,5-dimethylpiperidin-1-yl)-desmycosin]	32 mg/L (≈ 35.1 µM)	> 128 mg/L	8 mg/L (≈ 8.78 µM)	0.125 mg/L (≈ 0.137 µM)	1 mg/L (≈ 1.1 µM)	1 mg/L (≈ 1.1 µM)	1 mg/L (≈ 1.1 µM)	0.125 mg/L (≈ 0.137 µM)	1 mg/L (≈ 1.1 µM)	8 mg/L (≈ 8.78 µM)	1 mg/L (≈ 1.1 µM)	2 mg/L (≈ 2.19 µM)	> 128 mg/L	> 128 mg/L	64 mg/L (≈ 70.2 µM)			
CCC1OC(=O)CC(O)C(C)C(OC2OC(C)C(O)C(N(C)C)C2O)C(CCOc2ccccc2)CC(C)C(=O)C=CC(C)=CC1COC1OC(C)C(OC(=O)CN2CCN(C)CC2)C(OC)C1OC (centres unmarked) [Compound 15, 4ʹʹ-O-[(4-Methyl-piperazin-1-yl)acetyl]-20-DH-20-O-phenyl-desmycosin]	128 mg/L (≈ 129 µM)	> 128 mg/L	16 mg/L (≈ 16.2 µM)	2 mg/L (≈ 2.02 µM)	4 mg/L (≈ 4.04 µM)	4 mg/L (≈ 4.04 µM)	4 mg/L (≈ 4.04 µM)	1 mg/L (≈ 1.01 µM)	8 mg/L (≈ 8.08 µM)	16 mg/L (≈ 16.2 µM)	4 mg/L (≈ 4.04 µM)	4 mg/L (≈ 4.04 µM)	> 128 mg/L		128 mg/L (≈ 129 µM)	29 mg/kg	> 10 mg/kg	MIC [14, 32]: > 128 mg/L
CCC1OC(=O)CC(O)C(C)C(OC2OC(C)C(OC(C)=O)C(N(C)C)C2OC(C)=O)C(CCOc2ccccc2)CC(C)C(=O)C=CC(C)=CC1COC1OC(C)C(OC(=O)CCl)C(OC)C1OC (centres unmarked) [Compound 8, 2ʹ,4ʹ-Di-O-acetyl-4ʹʹ-O-(chloroacetyl)-20-DH-20-O-phenyl-desmycosin]	> 128 mg/L	> 128 mg/L	128 mg/L (≈ 127 µM)	2 mg/L (≈ 1.98 µM)	2 mg/L (≈ 1.98 µM)	2 mg/L (≈ 1.98 µM)	2 mg/L (≈ 1.98 µM)	8 mg/L (≈ 7.92 µM)	2 mg/L (≈ 1.98 µM)	32 mg/L (≈ 31.7 µM)	2 mg/L (≈ 1.98 µM)	2 mg/L (≈ 1.98 µM)	> 128 mg/L	> 128 mg/L	> 128 mg/L			
CCC(C)CN(CC)CCC1CC(C)C(=O)C=CC(C)=CC(COC2OC(C)C(OC(C)=O)C(OC)C2OC)C(CC)OC(=O)CC(O)C(C)C1OC1OC(C)C(O)C(N(C)C)C1O (centres unmarked) [Compound 17, 4ʹʹ-O-Acetyl-20-DH-20-deoxy-20-[N-ethyl-N-(2-methylbutyl)amino]desmycosin]	64 mg/L (≈ 70.1 µM)	> 128 mg/L	64 mg/L (≈ 70.1 µM)	4 mg/L (≈ 4.38 µM)	8 mg/L (≈ 8.76 µM)	4 mg/L (≈ 4.38 µM)	8 mg/L (≈ 8.76 µM)	4 mg/L (≈ 4.38 µM)	8 mg/L (≈ 8.76 µM)	64 mg/L (≈ 70.1 µM)	4 mg/L (≈ 4.38 µM)	8 mg/L (≈ 8.76 µM)	> 128 mg/L		128 mg/L (≈ 140 µM)			MIC [14, 32]: > 128 mg/L

Source: patent EP0262903A2, “New acyl derivatives of 20-modified tylosin and desmycosin compounds” (priority 1986, dated 1988)
